# Experimental data: patent US20120238549A1, “Nuclear Hormone Receptor Modulators” (ABBOTT LABORATORIES, priority 2011, published 2012)
# Molecular target: T1, Glucocorticoid Receptor (GR) (Homo sapiens, UniProt P04150)
# T1 construct: purchased Invitrogen P2893
# T1 sequence (P04150 1-777): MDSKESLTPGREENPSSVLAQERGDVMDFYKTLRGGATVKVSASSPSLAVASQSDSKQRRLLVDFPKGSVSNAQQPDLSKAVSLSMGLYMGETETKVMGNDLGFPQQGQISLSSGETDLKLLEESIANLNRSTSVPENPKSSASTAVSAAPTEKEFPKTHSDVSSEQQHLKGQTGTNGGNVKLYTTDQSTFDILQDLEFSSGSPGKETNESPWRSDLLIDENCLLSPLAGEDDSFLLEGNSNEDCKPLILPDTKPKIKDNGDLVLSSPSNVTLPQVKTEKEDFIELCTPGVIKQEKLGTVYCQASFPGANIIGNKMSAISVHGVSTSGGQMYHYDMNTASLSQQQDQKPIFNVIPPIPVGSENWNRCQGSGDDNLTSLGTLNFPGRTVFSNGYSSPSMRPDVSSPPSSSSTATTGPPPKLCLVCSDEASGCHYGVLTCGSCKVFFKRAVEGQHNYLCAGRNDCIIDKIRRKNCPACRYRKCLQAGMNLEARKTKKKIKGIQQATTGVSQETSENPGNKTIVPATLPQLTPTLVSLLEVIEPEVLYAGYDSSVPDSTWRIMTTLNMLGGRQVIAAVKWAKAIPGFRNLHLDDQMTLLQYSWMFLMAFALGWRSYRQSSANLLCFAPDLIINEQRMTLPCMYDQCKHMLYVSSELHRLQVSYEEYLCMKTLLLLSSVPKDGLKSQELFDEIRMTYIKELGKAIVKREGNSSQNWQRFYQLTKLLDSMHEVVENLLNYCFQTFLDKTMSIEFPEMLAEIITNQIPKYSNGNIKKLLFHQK
# Experiment: GR Florescence Polarization Assay (PolarScreen Glucocorticoid Receptor Competitor Assay, Red)
# Conditions: Fluorescense polarization binding ranges; competition with fluorescent glucocorticoid, incubated overnight at 4° C.
# Method: GR Florescence Polarization Assay Florescence polarization assays were carried out using the PolarScreen™ Glucocorticoid Receptor Competitor Assay, Red from Invitrogen (P2893). The assay buffer was prepared according to the manufacturer's protocol and used to dilute the fluorescent glucocorticoid and GR. Compounds were prepared and serial diluted 1:4 in DMSO. Compound, fluorescent glucocorticoid and GR were added in a final volume of 20 μL and incubated overnight at 4° C. Fluorescent polarization was measured on the Perkinelmer Envision®.
row,IC50 [nM],Compound
1,< 100,"Cc1ncccc1NC(=O)c1ccc2c(c1)CCC[C@H]1C[C@H](O)CC[C@@]21Cc1ccccc1 (racemic) [Example 17, (7aS,9R,11aS)-11a-Benzyl-9-hydroxy-6,7,7a,8,9,10,11,11a-octahydro-5H-dibenzo[a,c]cycloheptene-3-carboxylic acid (2-methyl-pyridin-3-yl)-amide; compound with (7aR,9S,11aR)-11a-benzyl-9-hydroxy-6,7,7a,8,9,10,11,11a-octahydro-5H-dibenzo[a,c]cycloheptene-3-carboxylic acid (2-methyl-pyridin-3-yl)-amide]"
2,< 100,"Cc1ncccc1NC(=O)c1ccc2c(c1)CCC[C@@H]1CC(=O)CC[C@@]21Cc1ccccc1 (racemic) [Example 8, (7aR,11aS)-11a-Benzyl-9-oxo-6,7,7a,8,9,10,11,11a-octahydro-5H-dibenzo[a,c]cycloheptene-3-carboxylic acid (2-methyl-pyridin-3-yl)-amide; compound with (7aS,11aR)-11a-benzyl-9-oxo-6,7,7a,8,9,10,11,11a-octahydro-5H-dibenzo[a,c]cycloheptene-3-carboxylic acid (2-methyl-pyridin-3-yl)-amide]"
3,> 10000,"Cc1ncccc1NC(=O)c1ccc2c(c1)NC(=O)C[C@H]1CC(O)(C(F)(F)F)CC[C@@]21Cc1ccccc1 (stereo partly drawn) [Example 21, (7aR,11aS)-11a-Benzyl-9-hydroxy-N-(2-methylpyridin-3-yl)-6-oxo-9-(trifluoromethyl)-6,7,7a,8,9,10,11,11a-octahydro-5H-dibenzo[b,d]azepine-3-carboxamide]"
4,< 100,CC[C@@]1(O)CC[C@@]2(Cc3ccccc3)c3ccc(C(=O)Nc4ncc(C)nc4C)cc3CCC[C@H]2C1 [Example 69]

# The remaining lines, values behind:
row,Compound,IC50 [nM]
1,"CCC[C@@]1(O)CC[C@@]2(CC)c3ccc(-c4nc5ccccc5[nH]4)cc3CCC[C@H]2C1 (racemic) [Example 146, (3R,4aS,11bR)-9-(1H-Benzoimidazol-2-yl)-11b-ethyl-3-propyl-2,3,4,4a,5,6,7,11b-octahydro-1H-dibenzo[a,c]cyclohepten-3-ol; compound with (3S,4aR,11bS)-9-(1H-benzoimidazol-2-yl)-11b-ethyl-3-propyl-2,3,4,4a,5,6,7,11b-octahydro-1H-dibenzo[a,c]cyclohepten-3-ol]",100 to 1000
2,"(3R,4aS,11bS)-11b-Benzyl-3-methyl-2,3,4,4a,5,6,7,11b-octahydro-1H-dibenzo[a,c]cycloheptene-3,9-diol; compound with (3S,4aR,11bR)-11b-benzyl-3-methyl-2,3,4,4a,5,6,7,11b-octahydro-1H-dibenzo[a,c]cycloheptene-3,9-diol [Example 6]",< 100
3,"Cc1ncccc1NC(=O)c1ccc2c(c1)CCC[C@@H]1C[C@@](C)(O)CC[C@@]21Cc1ccccc1.Cc1ncccc1NC(=O)c1ccc2c(c1)CCC[C@H]1C[C@](C)(O)CC[C@]21Cc1ccccc1 [Example 10, (7aR,9S,11aS)-11a-benzyl-9-hydroxy-9-methyl-6,7,7a,8,9,10,11,11a-octahydro-5H-dibenzo[a,c]cycloheptene-3-carboxylic acid (2-methyl-pyridin-3-yl)-amide; compound with (7aS,9R,11aR)-11a-benzyl-9-hydroxy-9-methyl-6,7,7a,8,9,10,11,11a-octahydro-5H-dibenzo[a,c]cycloheptene-3-carboxylic acid (2-methyl-pyridin-3-yl)-amide]",< 100
4,"CCC[C@@]1(O)CC[C@@]2(CC)c3ccc(C(=O)Nc4cccnc4C)cc3CCC[C@H]2C1 (single isomer, unassigned) [Example 45]",< 100
5,"CC[C@@]1(O)CC[C@@]2(Cc3ccccc3)c3nn(C)cc3CCC[C@H]2C1.CC[C@]1(O)CC[C@]2(Cc3ccccc3)c3nn(C)cc3CCC[C@@H]2C1 [Example 40, (6aS,8R,10aS)-10a-Benzyl-8-ethyl-2-methyl-2,4,5,6,6a,7,8,9,10,10a-decahydro-1,2-diaza-benzo[e]azulen-8-ol; compound with (6aR,8S,10aR)-10a-benzyl-8-ethyl-2-methyl-2,4,5,6,6a,7,8,9,10,10a-decahydro-1,2-diaza-benzo[e]azulen-8-ol]",> 10000
